ChEMBL document CHEMBL1201862, “PubChem BioAssay data set” (2004)
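The compound was tested at five concentrations on cells cultured in 96-well plates, with a 48-hour exposure period. Here, GI50 denotes the concentration required for 50% inhibition of growth.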 Active and inactive are the calls of the source. Rule as the data show it: active = GI50 up to about 1.1 µM and inactive = higher.

Legend:
Experiment in all cases: NCI-60 cell line screen, 48 h
CCRF-CEM = system: CCRF-CEM
SNB-75 = system: SNB-75
COLO 205 = system: COLO 205
A498 = system: A498
SR = system: SR
UACC-62 = system: UACC-62
HCT-116 = system: HCT-116
RXF 393 = system: RXF 393
SK-MEL-2 = system: SK-MEL-2
LOX IMVI = system: LOX IMVI
SK-OV-3 = system: SK-OV-3
CAKI-1 = system: CAKI-1
HT-29 = system: HT-29
K562 = system: K562
RPMI-8226 = system: RPMI-8226
UO-31 = system: UO-31
NCI-H522 = system: NCI-H522
EKVX = system: EKVX
A549 = system: A549
SF-295 = system: SF-295

## CCCC[C@H]1[C@@H](OCOc2ccccc2)COC(=O)N1[C@H](C)c1ccccc1
CCRF-CEM
  GI50: 16.8 µM (inactive)
SNB-75
  GI50: 10.8 µM (inactive)
COLO 205
  GI50: 25.9 µM (inactive)
A498
  GI50: 12.9 µM (inactive)
SR
  GI50: 8.49 µM (inactive)
UACC-62
  GI50: 10.3 µM (inactive)
HCT-116
  GI50: 7.62 µM (inactive)
RXF 393
  GI50: 19 µM (inactive)
SK-MEL-2
  GI50: 15.1 µM (inactive)
LOX IMVI
  GI50: 20.8 µM (inactive)
SK-OV-3
  GI50: 22.4 µM (inactive)
CAKI-1
  GI50: 13.5 µM (inactive)
HT-29
  GI50: > 34.2 µM (inactive)
K562
  GI50: 7.18 µM (inactive)
RPMI-8226
  GI50: 6.76 µM (inactive)
UO-31
  GI50: 11.8 µM (inactive)
NCI-H522
  GI50: 10.3 µM (inactive)
EKVX
  GI50: 25.4 µM (inactive)
A549
  GI50: 8.79 µM (inactive)
SF-295
  GI50: 11.9 µM (inactive)

## COC1C(O)CC(OC2CC(Oc3cc4cc5c(c(O)c4c(O)c3C)C(=O)[C@@H](OC3CC(OC4CC(OC6CC(C)(O)C(OC(C)=O)C(C)O6)C(O)C(C)O4)C(O)C(C)O3)[C@H]([C@H](OC)C(=O)[C@@H](O)[C@@H](C)O)C5)OC(C)C2OC(C)=O)OC1C (some centres undefined) [CHROMOMYCIN]
CCRF-CEM
  GI50: < 0.01 µM (active)
SNB-75
  GI50: < 0.01 µM (active)
COLO 205
  GI50: < 0.01 µM (active)
A498
  GI50: 0.0038 µM (active)
SR
  GI50: < 0.01 µM (active)
UACC-62
  GI50: 0.00295 µM (active)
HCT-116
  GI50: 0.00333 µM (active)
RXF 393
  GI50: 0.00311 µM (active)
SK-MEL-2
  GI50: 0.00361 µM (active)
LOX IMVI
  GI50: 0.00348 µM (active)
SK-OV-3
  GI50: 0.00673 µM (active)
CAKI-1
  GI50: < 0.01 µM (active)
HT-29
  GI50: < 0.01 µM (active)
K562
  GI50: 0.00566 µM (active)
RPMI-8226
  GI50: < 0.01 µM (active)
UO-31
  GI50: 0.0614 µM (active)
NCI-H522
  GI50: 0.00366 µM (active)
EKVX
  GI50: 0.00532 µM (active)
A549
  GI50: 0.00382 µM (active)
SF-295
  GI50: 0.0139 µM (active)

## COc1cccc(N2C(=O)C3c4[nH]c5ccc(C)cc5c4C4CCC(C(C)(C)C)CC4C3C2=O)c1 (centres undefined)
CCRF-CEM
  GI50: 2.77 µM (inactive)
SNB-75
  GI50: 2.51 µM (inactive)
COLO 205
  GI50: 7.16 µM (inactive)
A498
  GI50: > 10 µM (inactive)
SR
  GI50: 2 µM (inactive)
UACC-62
  GI50: > 10 µM (inactive)
HCT-116
  GI50: 2.17 µM (inactive)
RXF 393
  GI50: 3.8 µM (inactive)
SK-MEL-2
  GI50: > 10 µM (inactive)
LOX IMVI
  GI50: 2.43 µM (inactive)
SK-OV-3
  GI50: > 10 µM (inactive)
CAKI-1
  GI50: 9.84 µM (inactive)
HT-29
  GI50: 4.08 µM (inactive)
K562
  GI50: 2.65 µM (inactive)
RPMI-8226
  GI50: 4.06 µM (inactive)
UO-31
  GI50: 2.8 µM (inactive)
NCI-H522
  GI50: 1.87 µM (inactive)
EKVX
  GI50: 4.84 µM (inactive)
A549
  GI50: 3.38 µM (inactive)
SF-295
  GI50: > 10 µM (inactive)

## Cc1ccccc1OCC(COC(=O)Nc1ccccc1)OC(=O)Nc1ccccc1 (centres undefined)
CCRF-CEM
  GI50: > 100 µM (inactive)
SNB-75
  GI50: 7.1 µM (inactive)
COLO 205
  GI50: 72.3 µM (inactive)
A498
  GI50: 61.2 µM (inactive)
SR
  GI50: 12.1 µM (inactive)
UACC-62
  GI50: 23.3 µM (inactive)
HCT-116
  GI50: 15.8 µM (inactive)
RXF 393
  GI50: 7.24 µM (inactive)
SK-MEL-2
  GI50: 22 µM (inactive)
LOX IMVI
  GI50: 15.1 µM (inactive)
SK-OV-3
  GI50: 59.7 µM (inactive)
CAKI-1
  GI50: 26.5 µM (inactive)
HT-29
  GI50: 31.6 µM (inactive)
K562
  GI50: 4.05 µM (inactive)
RPMI-8226
  GI50: 1.81 µM (inactive)
UO-31
  GI50: 34.6 µM (inactive)
NCI-H522
  GI50: 19.6 µM (inactive)
EKVX
  GI50: > 100 µM (inactive)
A549
  GI50: 32.7 µM (inactive)
SF-295
  GI50: 51.3 µM (inactive)

## CCc1cc2c(cc1CCCC(=O)O)CC1(Cc3ccc(C(=O)O)cc3C1)C2 (centres undefined)
CCRF-CEM
  GI50: > 100 µM (inactive)
SNB-75
  GI50: > 100 µM (inactive)
COLO 205
  GI50: > 100 µM (inactive)
A498
  GI50: > 100 µM (inactive)
SR
  GI50: > 100 µM (inactive)
HCT-116
  GI50: > 100 µM (inactive)
RXF 393
  GI50: > 100 µM (inactive)
SK-MEL-2
  GI50: > 100 µM (inactive)
LOX IMVI
  GI50: > 100 µM (inactive)
SK-OV-3
  GI50: > 100 µM (inactive)
CAKI-1
  GI50: > 100 µM (inactive)
HT-29
  GI50: > 100 µM (inactive)
K562
  GI50: > 100 µM (inactive)
RPMI-8226
  GI50: > 100 µM (inactive)
UO-31
  GI50: > 100 µM (inactive)
NCI-H522
  GI50: > 100 µM (inactive)
EKVX
  GI50: > 100 µM (inactive)
A549
  GI50: > 100 µM (inactive)
SF-295
  GI50: > 100 µM (inactive)
